Measurements as given in ChEMBL document CHEMBL4842380, “Enhanced Properties of a Benzimidazole Benzylpyrazole Lysine Demethylase Inhibitor: Mechanism-of-Action, Binding Site Analysis, and Activity in Cellular Models of Prostate Cancer” (J Med Chem, 2021).
The source made the active and inactive calls. The calls are words filed in the database; no cut-off is given here.

How the values were obtained:
[1] = target: T1, Lysine-specific demethylase 4E (Homo sapiens, UniProt B2RXH2); experiment: Inhibition of N-terminal His6-tagged KDM4E (1 to 337 residues) (unknown origin) expressed in Escherichia coli BL21 (DE3)-R3 preincubated for 10 mins followed by substrate addition by fluorescence based FDH-coupled assay
T1 sequence (B2RXH2 whole entry): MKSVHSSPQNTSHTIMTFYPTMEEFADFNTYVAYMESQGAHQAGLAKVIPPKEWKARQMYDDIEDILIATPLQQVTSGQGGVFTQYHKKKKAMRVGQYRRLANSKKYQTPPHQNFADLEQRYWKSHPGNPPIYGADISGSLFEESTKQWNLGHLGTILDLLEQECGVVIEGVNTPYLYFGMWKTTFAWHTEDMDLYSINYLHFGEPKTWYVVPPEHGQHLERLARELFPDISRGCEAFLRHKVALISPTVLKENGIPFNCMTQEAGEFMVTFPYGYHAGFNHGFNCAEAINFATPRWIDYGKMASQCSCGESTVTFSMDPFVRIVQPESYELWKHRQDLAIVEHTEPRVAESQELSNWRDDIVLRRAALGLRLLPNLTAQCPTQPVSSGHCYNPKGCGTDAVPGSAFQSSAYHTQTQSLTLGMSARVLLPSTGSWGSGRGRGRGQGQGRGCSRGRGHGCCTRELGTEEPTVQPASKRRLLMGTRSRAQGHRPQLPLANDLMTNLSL

LNCaP [2] = experiment: Cytotoxicity against human LnCaP cells assessed as growth inhibition after 48 hrs by alamar blue assay; format: functional
DU-145 [3] = experiment: Cytotoxicity against human DU-145 cells assessed as growth inhibition after 48 hrs by alamar blue assay; format: functional
PC-3 [4] = experiment: Cytotoxicity against human PC-3 cells assessed as growth inhibition after 48 hrs by alamar blue assay; format: functional
[5] = Cytotoxicity against human LnCaP cells assessed as remaining cell viability after 48 hrs by alamar blue assay; format: functional, Prostate cell
DU-145 [6] = experiment: Cytotoxicity against human DU-145 cells assessed as remaining cell viability after 48 hrs by alamar blue assay; format: functional
PC-3 [7] = experiment: Cytotoxicity against human PC-3 cells assessed as remaining cell viability after 48 hrs by alamar blue assay; format: functional
[8] = Cytotoxicity against human prostate epithelial cells assessed as remaining cell viability after 48 hrs by alamar blue assay; format: functional
LNCaP [9] = experiment: Inhibition of KDM4 in human LNCaP cells assessed as decrease in luciferase activity at 25 uM incubated for 48 hrs by luciferase based reporter gene assay; format: cell-based
LNCaP [10] = experiment: Inhibition of KDM4 in human LNCaP cells assessed as decrease in PSA gene expression at 25 uM incubated for 48 hrs by qPCR analysis; format: cell-based
LNCaP [11] = experiment: Inhibition of KDM4 in human LNCaP cells assessed as decrease in PSA gene expression at 25 uM incubated for 48 hrs in presence of DHT by qPCR analysis; format: cell-based
LNCaP [12] = experiment: Inhibition of KDM4 in human LNCaP cells assessed as increase in H3K9me3 abundance at 25 uM incubated for 48 hrs by Western blot analysis; format: cell-based
LNCaP [13] = experiment: Inhibition of KDM4 in human LNCaP cells assessed as increase in H3K9me3 level at 25 uM incubated for 48 hrs by Nu-ELISA; format: cell-based
DU-145 [14] = experiment: Inhibition of KDM4 in human DU-145 cells assessed as increase in H3K9me3 level at 25 uM incubated for 48 hrs by Nu-ELISA; format: cell-based
[15] = target: T2, Lysine-specific demethylase 4E (Homo sapiens) (UniProt B2RXH2); experiment: Inhibition of N-terminal His6-tagged KDM4E (1 to 337 residues) (unknown origin) expressed in Escherichia coli BL21 (DE3)-R3 at highest concentration preincubated for 10 mins followed by substrate addition by fluorescence based FDH-coupled assay
T2 sequence (whole entry): T1 sequence (B2RXH2 whole entry)

[16] = target: T1, Lysine-specific demethylase 4E; experiment: Inhibition of N-terminal His6-tagged KDM4E (1 to 337 residues) (unknown origin) expressed in Escherichia coli BL21 (DE3)-R3 preincubated for 10 mins followed by alpha-KG addition after CTH addition for 2 hrs by ELISA
[17] = Cytotoxicity against human prostate epithelial cells assessed as growth inhibition after 48 hrs by alamar blue assay; format: cell-based, Prostate cell
LNCaP [18] = experiment: Inhibition of KDM4 in human LNCaP cells assessed as decrease in luciferase activity at 50 uM incubated for 48 hrs by luciferase based reporter gene assay; format: cell-based
LNCaP [19] = experiment: Inhibition of KDM4 in human LNCaP cells assessed as decrease in PSA gene expression at 100 uM incubated for 48 hrs by qPCR analysis; format: cell-based
[20] = compound: O=C(O)c1ccnc(C(=O)O)c1; experiment: Inhibition of N-terminal His6-tagged KDM4E (1 to 337 residues) (unknown origin) expressed in Escherichia coli BL21 (DE3)-R3 assessed as Km at 1 uM in presence of alpha-KG by Michaelis-Menten analysis (reference value: 22 uM); conditions: Homo sapiens
[21] = compound: Cc1nn(-c2nc3ccccc3[nH]2)c(O)c1-c1ccccc1; experiment: Inhibition of N-terminal His6-tagged KDM4E (1 to 337 residues) (unknown origin) expressed in Escherichia coli BL21 (DE3)-R3 assessed as Km at 1 uM in presence of alpha-KG by Michaelis-Menten analysis (reference value: 12 uM); conditions: Homo sapiens
[22] = compound: Cc1nn(-c2nc3ccccc3[nH]2)c(O)c1-c1ccccc1; experiment: Inhibition of N-terminal His6-tagged KDM4E (1 to 337 residues) (unknown origin) expressed in Escherichia coli BL21 (DE3)-R3 assessed as Km at 5 uM in presence of alpha-KG by Michaelis-Menten analysis (reference value: 12 uM); conditions: Homo sapiens
[23] = compound: Cc1nn(-c2nc3ccccc3[nH]2)c(O)c1-c1ccccc1; experiment: Inhibition of N-terminal His6-tagged KDM4E (1 to 337 residues) (unknown origin) expressed in Escherichia coli BL21 (DE3)-R3 assessed as Km at 10 uM in presence of alpha-KG by Michaelis-Menten analysis (reference value: 12 uM); conditions: Homo sapiens
[24] = compound: O=C(O)c1ccnc(C(=O)O)c1; experiment: Inhibition of N-terminal His6-tagged KDM4E (1 to 337 residues) (unknown origin) expressed in Escherichia coli BL21 (DE3)-R3 assessed as Vmax at 1 uM in presence of alpha-KG by Michaelis-Menten analysis (reference value: 42 /s); conditions: Homo sapiens
[25] = compound: Cc1nn(-c2nc3ccccc3[nH]2)c(O)c1-c1ccccc1; experiment: Inhibition of N-terminal His6-tagged KDM4E (1 to 337 residues) (unknown origin) expressed in Escherichia coli BL21 (DE3)-R3 assessed as Vmax at 1 uM in presence of alpha-KG by Michaelis-Menten analysis (reference value: 35 /s); conditions: Homo sapiens
[26] = compound: Cc1nn(-c2nc3ccccc3[nH]2)c(O)c1-c1ccccc1; experiment: Inhibition of N-terminal His6-tagged KDM4E (1 to 337 residues) (unknown origin) expressed in Escherichia coli BL21 (DE3)-R3 assessed as Vmax at 5 uM in presence of alpha-KG by Michaelis-Menten analysis (reference value: 35 /s); conditions: Homo sapiens
[27] = compound: Cc1nn(-c2nc3ccccc3[nH]2)c(O)c1-c1ccccc1; experiment: Inhibition of N-terminal His6-tagged KDM4E (1 to 337 residues) (unknown origin) expressed in Escherichia coli BL21 (DE3)-R3 assessed as Vmax at 10 uM in presence of alpha-KG by Michaelis-Menten analysis (reference value: 35 /s); conditions: Homo sapiens
[28] = compound: Cc1nn(-c2nc3ccccc3[nH]2)c(O)c1-c1ccccc1; experiment: Inhibition of N-terminal His6-tagged KDM4E (1 to 337 residues) (unknown origin) expressed in Escherichia coli BL21 (DE3)-R3 assessed as Km at 1 uM in presence of H3K9me3 by Michaelis-Menten analysis (reference value: 11 uM); conditions: Homo sapiens
[29] = compound: Cc1nn(-c2nc3ccccc3[nH]2)c(O)c1-c1ccccc1; experiment: Inhibition of N-terminal His6-tagged KDM4E (1 to 337 residues) (unknown origin) expressed in Escherichia coli BL21 (DE3)-R3 assessed as Km at 5 uM in presence of H3K9me3 by Michaelis-Menten analysis (reference value: 11 uM); conditions: Homo sapiens
[30] = compound: Cc1nn(-c2nc3ccccc3[nH]2)c(O)c1-c1ccccc1; experiment: Inhibition of N-terminal His6-tagged KDM4E (1 to 337 residues) (unknown origin) expressed in Escherichia coli BL21 (DE3)-R3 assessed as Km at 10 uM in presence of H3K9me3 by Michaelis-Menten analysis (reference value: 11 uM); conditions: Homo sapiens
[31] = compound: Cc1nn(-c2nc3ccccc3[nH]2)c(O)c1-c1ccccc1; experiment: Inhibition of N-terminal His6-tagged KDM4E (1 to 337 residues) (unknown origin) expressed in Escherichia coli BL21 (DE3)-R3 assessed as Vmax at 1 uM in presence of H3K9me3 by Michaelis-Menten analysis (reference value: 21 /s); conditions: Homo sapiens
[32] = compound: Cc1nn(-c2nc3ccccc3[nH]2)c(O)c1-c1ccccc1; experiment: Inhibition of N-terminal His6-tagged KDM4E (1 to 337 residues) (unknown origin) expressed in Escherichia coli BL21 (DE3)-R3 assessed as Vmax at 5 uM in presence of H3K9me3 by Michaelis-Menten analysis (reference value: 21 /s); conditions: Homo sapiens
[33] = compound: Cc1nn(-c2nc3ccccc3[nH]2)c(O)c1-c1ccccc1; experiment: Inhibition of N-terminal His6-tagged KDM4E (1 to 337 residues) (unknown origin) expressed in Escherichia coli BL21 (DE3)-R3 assessed as Vmax at 10 uM in presence of H3K9me3 by Michaelis-Menten analysis (reference value: 21 /s); conditions: Homo sapiens

## CCCc1c(C)nn(-c2nc3ccccc3[nH]2)c1O
[1]
  IC50: 24 µM

## Cc1nn(-c2nc3ccccc3[nH]2)c(N)c1-c1ccccc1
[1]
  IC50: 160 µM

## CNC(=O)CCc1c(C)nn(-c2nc3ccccc3[nH]2)c1O
[1]
  IC50: 41 µM

## Cc1nn(-c2nc3ccc(C(=O)O)cc3[nH]2)c(O)c1-c1ccccc1
[1]
  IC50: 19 µM

## Cc1nn(-c2nc3ccccc3[nH]2)c(O)c1-c1ccccc1
LNCaP [2]
  GI50: 8 µM
DU-145 [3]
  GI50: 8 µM
PC-3 [4]
  GI50: > 50 µM
[5]
  Activity: 1%
DU-145 [6]
  Activity: 0%
PC-3 [7]
  Activity: 27%
[8]
  Activity: 2%
LNCaP [9]
  inhibition: Active
LNCaP [10]
  inhibition: Active
LNCaP [11]
  inhibition: Active
LNCaP [12]
  inhibition: Active
LNCaP [13]
  inhibition: Active
DU-145 [14]
  inhibition: Active

## CCCCc1nn(-c2nc3ccccc3[nH]2)c(O)c1-c1ccccc1
[1]
  IC50: 6 µM

## O=C(O)Cc1cc(O)n(-c2nc3ccccc3[nH]2)n1
[1]
  IC50: 347 µM

## Cc1nn(-c2nc3ccccc3[nH]2)c(O)c1CCCN(C)C
[1]
  IC50: 70 µM

## Cc1nn(-c2nc3ccccc3n2C)c(O)c1-c1ccccc1
[1]
  IC50: 34 µM

## C=CCc1c(C)nn(-c2ccccn2)c1O
[1]
  IC50: 191 µM

## C=CCc1c(C)nn(-c2nc3ccccc3[nH]2)c1O
[1]
  IC50: 24 µM

## Cc1cc(C)n(-c2nc3ccccc3[nH]2)n1
[15]
  inhibition: inactive

## CNCCCc1c(C)nn(-c2nc3ccccc3[nH]2)c1O
[1]
  IC50: 9 µM

## Cc1nn(-c2nc3ccccc3s2)c(O)c1-c1ccccc1
[1]
  IC50: 35 µM

## Cc1nn(-c2nc3ccccc3[nH]2)c(O)c1CCC(=O)O
[1]
  IC50: 274 µM

## COC(=O)Cc1cc(O)n(-c2nc3ccccc3[nH]2)n1
[1]
  IC50: 15 µM
[16]
  IC50: 581 µM
LNCaP [2]
  GI50: 410 µM
DU-145 [3]
  GI50: > 1000 µM
PC-3 [4]
  GI50: > 1000 µM
[17]
  GI50 at 48 h: > 500 µM
[5]
  Activity: 15%
DU-145 [6]
  Activity: 69%
PC-3 [7]
  Activity: 79%
[8]
  Activity: 12%

## Cc1nn(-c2nc3ccccc3[nH]2)c(O)c1Cc1ccccc1
[1]
  IC50: 27 µM

## COC(=O)CCc1c(C)nn(-c2nc3ccccc3[nH]2)c1O
[1]
  IC50: 72 µM

## CCc1nn(-c2nc3ccccc3[nH]2)c(O)c1-c1ccccc1
[1]
  IC50: 5 µM

## Cc1nn(-c2nc3ccccc3[nH]2)c(O)c1CCC(=O)N(C)C
[1]
  IC50: 16 µM

## CN(C)CCCNC(=O)c1ccc(-c2cc(O)c3ncccc3c2)cc1
LNCaP [2]
  GI50: 53 µM
[5]
  Activity: 1%
LNCaP [18]
  inhibition: Active
LNCaP [19]
  inhibition: inactive
LNCaP [13]
  inhibition: Active
DU-145 [14]
  inhibition: Active

## Cc1cc(N)n(-c2nc3ccccc3[nH]2)n1
[1]
  IC50: 199 µM

## C#CCc1c(C)nn(-c2nc3ccccc3[nH]2)c1O
[1]
  IC50: 5 µM

## Cc1nn(-c2ccccn2)c(O)c1Cc1ccccc1
[1]
  IC50: 57 µM

## COC(=O)CCc1nn(-c2nc3ccccc3[nH]2)c(O)c1C
[1]
  IC50: 106 µM

## Cc1nn(-c2ccc(Cl)nn2)c(O)c1-c1ccccc1
[1]
  IC50: 68 µM

## Brc1cnn(-c2nc3ccccc3[nH]2)c1
[15]
  inhibition: inactive

## Cc1c(CCC(=O)O)nn(-c2nc3ccccc3[nH]2)c1O
[1]
  IC50: 437 µM

## Cc1cc(O)n(-c2nc3ccccc3[nH]2)n1
[1]
  IC50: 76 µM

## Cc1ccc(-c2c(C)nn(-c3nc4ccccc4[nH]3)c2O)cc1
[1]
  IC50: 27 µM

B1: Lysine-specific demethylase 4E (Homo sapiens), B2RXH2 (protein)
chain: T1 sequence (B2RXH2 whole entry)
[20]
  Km: 69 µM
[21]
  Km: 13 µM
[22]
  Km: 8 µM
[23]
  Km: 2 µM
[24]
  Vmax: 37 s⁻¹
[25]
  Vmax: 31 s⁻¹
[26]
  Vmax: 24 s⁻¹
[27]
  Vmax: 12 s⁻¹
[28]
  Km: 14 µM
[29]
  Km: 14 µM
[30]
  Km: 19 µM
[31]
  Vmax: 21 s⁻¹
[32]
  Vmax: 14 s⁻¹
[33]
  Vmax: 5 s⁻¹
